Measurements published in article PMC11352961, “Peptide dendrimers transfecting CRISPR/Cas9 plasmid DNA: optimization and mechanism” (RSC Chemical Biology, 2024).
Bridge positions count the residues as written; N and C are the ends. Square brackets hold non-standard residues; d marks the D form. Side chains are listed from the residue outwards. Peptide text beside a SMILES is read from it. I, II: the chains in the order shown. * marks the point of attachment. Stearoyl = CCCCCCCCCCCCCCCCCC(=O)*; Palmitoyl = CCCCCCCCCCCCCCCC(=O)*

How the values were obtained:
HeLa cells = test: Cell viability by PrestoBlue assay after transfection, HeLa cells; type: cell-based; conditions: 4 h
HEK293 cells = test: Cell viability by PrestoBlue assay after transfection, HEK cells; type: cell-based; conditions: 4 h

Row | Structure (SMILES) | % viability HeLa cells (HeLa cells) | % viability HEK cells (HEK293 cells)
1 | CCCCCCCCCCCCCCCCCC(=O)NCCCC[C@@H](NC(=O)[C@@H](CCCCNC(=O)[C@@H](CC(C)C)NC(=O)[C@@H](CC(C)C)NC(=O)[C@@H](CCCCNC(=O)[C@@H](CC(C)C)NC(=O)[C@@H](CC(C)C)NC(=O)[C@@H](CCCCNC(=O)[C@@H](CC(C)C)NC(=O)[C@H](N)CCCCN)NC(=O)[C@@H](CC(C)C)NC(=O)[C@H](N)CCCCN)NC(=O)[C@@H](CC(C)C)NC(=O)[C@@H](CC(C)C)NC(=O)[C@@H](CCCCNC(=O)[C@@H](CC(C)C)NC(=O)[C@H](N)CCCCN)NC(=O)[C@@H](CC(C)C)NC(=O)[C@H](N)CCCCN)NC(=O)[C@@H](CC(C)C)NC(=O)[C@@H](CC(C)C)NC(=O)[C@@H](CCCCNC(=O)[C@@H](CC(C)C)NC(=O)[C@@H](CC(C)C)NC(=O)[C@@H](CCCCNC(=O)[C@@H](CC(C)C)NC(=O)[C@H](N)CCCCN)NC(=O)[C@@H](CC(C)C)NC(=O)[C@H](N)CCCCN)NC(=O)[C@@H](CC(C)C)NC(=O)[C@@H](CC(C)C)NC(=O)[C@@H](CCCCNC(=O)[C@@H](CC(C)C)NC(=O)[C@H](N)CCCCN)NC(=O)[C@@H](CC(C)C)NC(=O)[C@H](N)CCCCN)C(N)=O [Z32] (I: H-[dK][dL][dK]([dL-dK])[dL][dL][dK][dL][dL][dK][dK](Stearoyl)-NH2 / II: H-[dK][dL][dK]([dL-dK])[dL][dL][dK][dL][dL] / III: H-[dK][dL][dK]([dL-dK])[dL][dL] / IV: H-[dK][dL][dK]([dL-dK])[dL][dL]; amide I:6-IV:C, I:9-II:C, II:6-III:C) | 97 ± 4% | 111 ± 1%
2 | CCCCCCCCCCCCCCCC(=O)NCCCC[C@@H](NC(=O)[C@@H](CCCCNC(=O)[C@@H](CC(C)C)NC(=O)[C@@H](CCCCN)NC(=O)[C@@H](CCCCNC(=O)[C@@H](CC(C)C)NC(=O)[C@@H](CCCCN)NC(=O)[C@@H](CCCCNC(=O)[C@@H](CC(C)C)NC(=O)[C@H](N)CCCCN)NC(=O)[C@@H](CC(C)C)NC(=O)[C@H](N)CCCCN)NC(=O)[C@@H](CC(C)C)NC(=O)[C@@H](CCCCN)NC(=O)[C@@H](CCCCNC(=O)[C@@H](CC(C)C)NC(=O)[C@H](N)CCCCN)NC(=O)[C@@H](CC(C)C)NC(=O)[C@H](N)CCCCN)NC(=O)[C@@H](CC(C)C)NC(=O)[C@@H](CCCCN)NC(=O)[C@@H](CCCCNC(=O)[C@@H](CC(C)C)NC(=O)[C@@H](CCCCN)NC(=O)[C@@H](CCCCNC(=O)[C@@H](CC(C)C)NC(=O)[C@H](N)CCCCN)NC(=O)[C@@H](CC(C)C)NC(=O)[C@H](N)CCCCN)NC(=O)[C@@H](CC(C)C)NC(=O)[C@@H](CCCCN)NC(=O)[C@@H](CCCCNC(=O)[C@@H](CC(C)C)NC(=O)[C@H](N)CCCCN)NC(=O)[C@@H](CC(C)C)NC(=O)[C@H](N)CCCCN)C(N)=O [Z29] (I: H-[dK][dL][dK]([dL-dK])[dK][dL][dK][dK][dL][dK][dK](Palmitoyl)-NH2 / II: H-[dK][dL][dK]([dL-dK])[dK][dL][dK][dK][dL] / III: H-[dK][dL][dK]([dL-dK])[dK][dL] / IV: H-[dK][dL][dK]([dL-dK])[dK][dL]; amide I:6-IV:C, I:9-II:C, II:6-III:C) | 95 ± 5% | 87 ± 1%
3 | CCCCCCCCCCCCCCCCCC(=O)NCCCC[C@H](NC(=O)[C@H](CCCCNC(=O)[C@H](CC(C)C)NC(=O)[C@H](CCCCN)NC(=O)[C@H](CCCCNC(=O)[C@H](CC(C)C)NC(=O)[C@H](CCCCN)NC(=O)[C@H](CCCCNC(=O)[C@H](CC(C)C)NC(=O)[C@@H](N)CCCCN)NC(=O)[C@H](CC(C)C)NC(=O)[C@@H](N)CCCCN)NC(=O)[C@H](CC(C)C)NC(=O)[C@H](CCCCN)NC(=O)[C@H](CCCCNC(=O)[C@H](CC(C)C)NC(=O)[C@@H](N)CCCCN)NC(=O)[C@H](CC(C)C)NC(=O)[C@@H](N)CCCCN)NC(=O)[C@H](CC(C)C)NC(=O)[C@H](CCCCN)NC(=O)[C@H](CCCCNC(=O)[C@H](CC(C)C)NC(=O)[C@H](CCCCN)NC(=O)[C@H](CCCCNC(=O)[C@H](CC(C)C)NC(=O)[C@@H](N)CCCCN)NC(=O)[C@H](CC(C)C)NC(=O)[C@@H](N)CCCCN)NC(=O)[C@H](CC(C)C)NC(=O)[C@H](CCCCN)NC(=O)[C@H](CCCCNC(=O)[C@H](CC(C)C)NC(=O)[C@@H](N)CCCCN)NC(=O)[C@H](CC(C)C)NC(=O)[C@@H](N)CCCCN)C(=O)N[C@@H](C)C(N)=O [Z15] (I: H-KLK([Leu-Lys])KLKKLKK(Stearoyl)A-NH2 / II: H-KLK([Leu-Lys])KLKKL / III: H-KLK([Leu-Lys])KL / IV: H-KLK([Leu-Lys])KL; amide I:6-IV:C, I:9-II:C, II:6-III:C) | 107 ± 10% | 71 ± 7%
4 | CCCCCCCCCCCCCCCC(=O)NCCCC[C@@H](NC(=O)[C@@H](CCCCNC(=O)[C@@H](CC(C)C)NC(=O)[C@@H](CCCNC(=N)N)NC(=O)[C@@H](CCCCNC(=O)[C@@H](CC(C)C)NC(=O)[C@@H](CCCNC(=N)N)NC(=O)[C@@H](CCCCNC(=O)[C@@H](CC(C)C)NC(=O)[C@H](N)CCCNC(=N)N)NC(=O)[C@@H](CC(C)C)NC(=O)[C@H](N)CCCNC(=N)N)NC(=O)[C@@H](CC(C)C)NC(=O)[C@@H](CCCNC(=N)N)NC(=O)[C@@H](CCCCNC(=O)[C@@H](CC(C)C)NC(=O)[C@H](N)CCCNC(=N)N)NC(=O)[C@@H](CC(C)C)NC(=O)[C@H](N)CCCNC(=N)N)NC(=O)[C@@H](CC(C)C)NC(=O)[C@@H](CCCNC(=N)N)NC(=O)[C@@H](CCCCNC(=O)[C@@H](CC(C)C)NC(=O)[C@@H](CCCNC(=N)N)NC(=O)[C@@H](CCCCNC(=O)[C@@H](CC(C)C)NC(=O)[C@H](N)CCCNC(=N)N)NC(=O)[C@@H](CC(C)C)NC(=O)[C@H](N)CCCNC(=N)N)NC(=O)[C@@H](CC(C)C)NC(=O)[C@@H](CCCNC(=N)N)NC(=O)[C@@H](CCCCNC(=O)[C@@H](CC(C)C)NC(=O)[C@H](N)CCCNC(=N)N)NC(=O)[C@@H](CC(C)C)NC(=O)[C@H](N)CCCNC(=N)N)C(N)=O [Z33] (I: H-[dR][dL][dK]([dL-dR])[dR][dL][dK][dR][dL][dK][dK](Palmitoyl)-NH2 / II: H-[dR][dL][dK]([dL-dR])[dR][dL][dK][dR][dL] / III: H-[dR][dL][dK]([dL-dR])[dR][dL] / IV: H-[dR][dL][dK]([dL-dR])[dR][dL]; amide I:6-IV:C, I:9-II:C, II:6-III:C) | 93 ± 6% | 84 ± 1%
5 | CCCCCCCCCCCCCCCCCC(=O)NCCCC[C@@H](NC(=O)[C@@H](CCCCNC(=O)[C@@H](CC(C)C)NC(=O)[C@@H](CC(C)C)NC(=O)[C@@H](CCCCNC(=O)[C@@H](CC(C)C)NC(=O)[C@@H](CCCCN)NC(=O)[C@@H](CCCCNC(=O)[C@@H](CC(C)C)NC(=O)[C@H](N)CCCCN)NC(=O)[C@@H](CC(C)C)NC(=O)[C@H](N)CCCCN)NC(=O)[C@@H](CC(C)C)NC(=O)[C@@H](CCCCN)NC(=O)[C@@H](CCCCNC(=O)[C@@H](CC(C)C)NC(=O)[C@H](N)CCCCN)NC(=O)[C@@H](CC(C)C)NC(=O)[C@H](N)CCCCN)NC(=O)[C@@H](CC(C)C)NC(=O)[C@@H](CC(C)C)NC(=O)[C@@H](CCCCNC(=O)[C@@H](CC(C)C)NC(=O)[C@@H](CCCCN)NC(=O)[C@@H](CCCCNC(=O)[C@@H](CC(C)C)NC(=O)[C@H](N)CCCCN)NC(=O)[C@@H](CC(C)C)NC(=O)[C@H](N)CCCCN)NC(=O)[C@@H](CC(C)C)NC(=O)[C@@H](CCCCN)NC(=O)[C@@H](CCCCNC(=O)[C@@H](CC(C)C)NC(=O)[C@H](N)CCCCN)NC(=O)[C@@H](CC(C)C)NC(=O)[C@H](N)CCCCN)C(N)=O [Z31] (I: H-[dK][dL][dK]([dL-dK])[dK][dL][dK][dL][dL][dK][dK](Stearoyl)-NH2 / II: H-[dK][dL][dK]([dL-dK])[dK][dL][dK][dL][dL] / III: H-[dK][dL][dK]([dL-dK])[dK][dL] / IV: H-[dK][dL][dK]([dL-dK])[dK][dL]; amide I:6-IV:C, I:9-II:C, II:6-III:C) | 91 ± 6% | 96 ± 2%
6 | CCCCCCCCCCCCCCCCCC(=O)NCCCC[C@H](NC(=O)[C@H](CCCCNC(=O)[C@H](CC(C)C)NC(=O)[C@H](CCCNC(=N)N)NC(=O)[C@H](CCCCNC(=O)[C@H](CC(C)C)NC(=O)[C@H](CCCNC(=N)N)NC(=O)[C@H](CCCCNC(=O)[C@H](CC(C)C)NC(=O)[C@@H](N)CCCNC(=N)N)NC(=O)[C@H](CC(C)C)NC(=O)[C@@H](N)CCCNC(=N)N)NC(=O)[C@H](CC(C)C)NC(=O)[C@H](CCCNC(=N)N)NC(=O)[C@H](CCCCNC(=O)[C@H](CC(C)C)NC(=O)[C@@H](N)CCCNC(=N)N)NC(=O)[C@H](CC(C)C)NC(=O)[C@@H](N)CCCNC(=N)N)NC(=O)[C@H](CC(C)C)NC(=O)[C@H](CCCNC(=N)N)NC(=O)[C@H](CCCCNC(=O)[C@H](CC(C)C)NC(=O)[C@H](CCCNC(=N)N)NC(=O)[C@H](CCCCNC(=O)[C@H](CC(C)C)NC(=O)[C@@H](N)CCCNC(=N)N)NC(=O)[C@H](CC(C)C)NC(=O)[C@@H](N)CCCNC(=N)N)NC(=O)[C@H](CC(C)C)NC(=O)[C@H](CCCNC(=N)N)NC(=O)[C@H](CCCCNC(=O)[C@H](CC(C)C)NC(=O)[C@@H](N)CCCNC(=N)N)NC(=O)[C@H](CC(C)C)NC(=O)[C@@H](N)CCCNC(=N)N)C(=O)N[C@@H](CS)C(N)=O [Z24] (I: H-RLK([Leu-Arg])RLKRLKK(Stearoyl)C-NH2 / II: H-RLK([Leu-Arg])RLKRL / III: H-RLK([Leu-Arg])RL / IV: H-RLK([Leu-Arg])RL; amide I:6-IV:C, I:9-II:C, II:6-III:C) | 91 ± 6% | 86 ± 1%
